In ChEMBL document CHEMBL5236606, “Synthesis, Structure-Activity Relationships, and In Vivo Evaluation of Novel C-17 Amine Derivatives Based on GSK3640254 as HIV-1 Maturation Inhibitors with Broad Spectrum Activity” (J Med Chem, 2022):

Experiments:
[1] = Fold resistance, ratio of EC50 for antiviral activity against wild type HIV-1 NLRepRlucP373S infected in human MT2 cells assessed as inhibition of viral growth in presence of 10% FBS and 40% human serum supplemented with 27mg/mL of human serum albumin to EC50 for antiviral activity against wild type HIV-1 NLRepRlucP373S infected in human MT2 cells assessed as inhibition of viral growth; assay type: functional, Human immunodeficiency virus 1
[2] = system: Human immunodeficiency virus 1; test: Antiviral activity against wild type HIV-1 NLRepRlucP373S harboring T332S/V362I/prR41G mutant infected in human MT2 cells assessed as inhibition of viral growth measured after 4 to 5 days by Dual luciferase reporter assay; assay type: functional, organism-based; settings: Human immunodeficiency virus 1, NLRepRlucP373S
[3] = system: Human immunodeficiency virus 1; test: Antiviral activity against wild type HIV-1 NLRepRlucP373S infected in human MT2 cells assessed as inhibition of viral growth measured after 4 to 5 days in presence of 10% FBS and 40% human serum supplemented with 27 mg/mL of human serum albumin by Dual luciferase reporter assay; assay type: functional, organism-based; settings: Human immunodeficiency virus 1, NLRepRlucP373S
[4] = Cytotoxicity against human MT2 cells assessed as reduction in cell viability; assay type: toxicity, cell-based
[5] = system: Human immunodeficiency virus 1; test: Antiviral activity against wild type HIV-1 NLRepRlucP373S infected in human MT2 cells assessed as inhibition of viral growth measured after 4 to 5 days by Dual luciferase reporter assay; assay type: functional, organism-based; settings: Human immunodeficiency virus 1, NLRepRlucP373S

| SMILES | fold change (FC) [1] | EC50 [2] [nM] | EC50 [3] [nM] | CC50 [4] [nM] | EC50 [5] [nM] |
| --- | --- | --- | --- | --- | --- |
| C=C(C)[C@@H]1CC[C@]2(NCCN3CCS(=O)(=O)CC3)CC[C@]3(C)[C@H](CC[C@@H]4[C@@]5(C)CC=C(C6=CCC(CF)(C(=O)O)CC6)C(C)(C)[C@@H]5CC[C@]43C)[C@@H]12 (single isomer, unassigned) | 3.3 | – | – | – | – |
| C=C(C)[C@@H]1CC[C@]2(NCCCC(C)(C)O)CC[C@]3(C)[C@H](CC[C@@H]4[C@@]5(C)CC=C(C6=CC[C@](CF)(C(=O)O)CC6)C(C)(C)[C@@H]5CC[C@]43C)[C@@H]12 | 6.3 | 44 | 84 | 7500 | 14 |
| C=C(C)[C@@H]1CC[C@]2(NCC(C)(C)O)CC[C@]3(C)[C@H](CC[C@@H]4[C@@]5(C)CC=C(C6=CC[C@](CF)(C(=O)O)CC6)C(C)(C)[C@@H]5CC[C@]43C)[C@@H]12 | 9.7 | 50 | 147 | 8700 | 15 |
| C=C(C)[C@@H]1CC[C@]2(NCCN3CCN(S(C)(=O)=O)CC3)CC[C@]3(C)[C@H](CC[C@@H]4[C@@]5(C)CC=C(C6=CC[C@](CF)(C(=O)O)CC6)C(C)(C)[C@@H]5CC[C@]43C)[C@@H]12 | 9 | 5.7 | 18 | 11400 | 2 |
| C=C(C)[C@@H]1CC[C@]2(NCCC3CCS(=O)(=O)CC3)CC[C@]3(C)[C@H](CC[C@@H]4[C@@]5(C)CC=C(C6=CC[C@](CF)(C(=O)O)CC6)C(C)(C)[C@@H]5CC[C@]43C)[C@@H]12 | 14 | 14 | 54 | 14000 | 3.9 |
| C=C(C)[C@@H]1CC[C@]2(NCCC3(O)CCN(S(C)(=O)=O)CC3)CC[C@]3(C)[C@H](CC[C@@H]4[C@@]5(C)CC=C(C6=CC[C@](CF)(C(=O)O)CC6)C(C)(C)[C@@H]5CC[C@]43C)[C@@H]12 | 73 | 8.3 | 19 | 23000 | 2.6 |
| C=C(C)[C@@H]1CC[C@]2(NCCN3CCOCC3)CC[C@]3(C)[C@H](CC[C@@H]4[C@@]5(C)CC=C(C6=CC[C@](CF)(C(=O)O)CC6)C(C)(C)[C@@H]5CC[C@]43C)[C@@H]12 | 12 | 18 | 53 | 7700 | 4.5 |
| C=C(C)[C@@H]1CC[C@]2(NCCC3(O)CCC3)CC[C@]3(C)[C@H](CC[C@@H]4[C@@]5(C)CC=C(C6=CC[C@](CF)(C(=O)O)CC6)C(C)(C)[C@@H]5CC[C@]43C)[C@@H]12 | 6.4 | 16 | 36 | 12000 | 5.6 |
| C=C(C)[C@@H]1CC[C@]2(NCC[C@]3(O)CC[C@@H](S(C)(=O)=O)CC3)CC[C@]3(C)[C@H](CC[C@@H]4[C@@]5(C)CC=C(C6=CC[C@@](CF)(C(=O)O)CC6)C(C)(C)[C@@H]5CC[C@]43C)[C@@H]12 | 13 | 6.5 | 30 | 17000 | 2.3 |
| C=C(C)[C@@H]1CC[C@]2(NCCC3CCOCC3)CC[C@]3(C)[C@H](CC[C@@H]4[C@@]5(C)CC=C(C6=CC[C@](CF)(C(=O)O)CC6)C(C)(C)[C@@H]5CC[C@]43C)[C@@H]12 | 33 | 160 | 980 | 13000 | 30 |
| C=C(C)[C@@H]1CC[C@]2(NCC[C@]3(O)CC[C@H](S(C)(=O)=O)CC3)CC[C@]3(C)[C@H](CC[C@@H]4[C@@]5(C)CC=C(C6=CC[C@](CF)(C(=O)O)CC6)C(C)(C)[C@@H]5CC[C@]43C)[C@@H]12 | 4.1 | 4.6 | 5.9 | 16000 | 1.5 |
